According to article PMC3758303 (PLoS ONE, 2013):

How the values were obtained:
HCV-RNA replication = tested on: HCV-RNA replication; parameters: method as in PMID 21620801, PMID 16875675; settings: cited from earlier work
[1] = tested on: HCV-RNA replication in ORL8 cells; assay: Effect of VE on anti-HCV activity, ORL8 RL assay; assay type: cell-based, hepatitis C virus; settings: 72 hrs
Method: After treatment, an RL assay of harvested ORL8 cell samples was performed. (B, D, and F) The ratio of RL activity in the presence of VE to the RL activity in the absence of VE. The above ratio was calculated from the data of (A, C, and E). […] (G) Western blot analysis was performed as described in Fig. 1B.
(§1) The ORL8 cells were treated with N-89 or IFN-α, and then RL assays were performed at 2 to 72 hrs after the treatment. The relative value (%) calculated at each time point, when the luciferase activity of non-treated cells at 24 hrs was assigned as 100%, is shown. Data are expressed as the means±standard deviation of triplicate assays. […] To evaluate this possibility, we examined the effect of VE on N-89 at the EC90 level in the ORL8 assay.

[2] = tested on: genome-length HCV-RNA (O strain of genotype 1b) replication in Li23-derived ORL8 cells; parameters: method as in PMID 21320556; settings: 10 µM, ORL8 assay; cited from earlier work
[3] = tested on: genome-length HCV-RNA (O strain of genotype 1b) replication in Li23-derived ORL11 cells; parameters: method as in PMID 21320556; settings: 10 µM, ORL11 assay; cited from earlier work
[4] = tested on: genome-length HCV-RNA (O strain of genotype 1b) replication in HuH-7-derived OR6 cells; parameters: method as in PMID 21320556; settings: 10 µM, OR6 assay; cited from earlier work
[5] = tested on: HCV-RNA replication in ORL8 cells; assay: Comparative time course RL assay in ORL8 cells; assay type: cell-based, hepatitis C virus; settings: 1 IU/ml
Method: We next performed a time course assay (2 to 72 hrs after treatment) in the case of ORL8 cells treated with N-89 (0.1 µM or 1 µM) or IFN-α (1 IU/ml; corresponding to approximately EC80). ORL8 cells treated with IFN-α (1 IU/ml) and N-89 (1 µM) had almost the same anti-HCV kinetics over the first […] after treatment (upper panel of Fig. 4); however, within the first 12 hrs after treatment N-89-treated ORL8 cells had more rapid anti-HCV kinetics than did the IFN-α-treated cells (lower panel of Fig. 4).
as §1, with “Figure 4 The anti-HCV action of N-89 was faster than that of IFN-α. The ORL8” for “The ORL8”, “ORL8 assay. […] Similar results were obtained by using N-251 (Fig. 5C and D). […] However, an antimalarial drug, artemisinin, was hardly influenced by co-treatment with VE (Fig. 5E). The value (1.9) of artemisinin was almost the same as that (3.5 or 2.5) of IFN-α or the control, respectively (Fig. 5F).” for “ORL8 assay.”

[6] = tested on: genome-length HCV-RNA (O strain of genotype 1b) replication in Li23-derived ORL8 cells; assay: ORL8 RL assay; assay type: cell-based, hepatitis C virus; settings: ORL8 cells
Method: RSc and D7 cells were derived from the cell lines HuH-7 and Li23, respectively, were cultured as described previously, [29]. HuH-7-derived OR6 [13], AH1R [30], and 1B-4R [Ikeda et al., submitted] cells harboring genome-length HCV-RNA and HuH-7-derived polyclonal sOR [31], and RSc-JRN/35B [Ikeda et al., submitted] cells harboring an HCV subgenomic replicon were cultured with medium in the presence of G418 (0.3 mg/ml; Geneticin, Invitrogen, Carlsbad, CA) as described previously. Li23-derived ORL8 [20], ORL11 [20], 1B-4RL [Ikeda et al., submitted], and KAH5RL [Ikeda et al., submitted] cells harboring genome-length HCV-RNA were maintained with medium in the presence of G418 (0.3 mg/ml) as described previously. Li23-derived polyclonal sORL8 and sORL11 cells harboring an HCV replicon, which were established by the transfection of ORN/3-5B/QR,KE,SR RNA into the cured OL8 and OL11 cells, respectively, were also cultured with medium in the presence of G418 (0.3 mg/ml) as described previously. […] Therefore, when HCV-RNA is excluded from the cells or when its level is decreased, the cells are killed in the presence of G418.
RL assay was performed as described previously, [24]. Briefly, the cells were plated onto 24-well plates (2×10^4 cells per well) in triplicate and then treated with each reagent at several concentrations for 72 hrs. After treatment, the cells were subjected to luciferase assay using the RL assay system (Promega, Madison, WI). The experiments were performed at least in triplicate. From the assay results, the 50% effective concentration (EC50) of each reagent was determined.
The SI value of each reagent was determined by dividing the CC50 value by the EC50 value.

[7] = reagent at expected EC90, Fig. 5F (control 2.5)

Row | Compound | anti-HCV activity (HCV-RNA replication) | VE 10μM(+) / VE 10μM(-) ratio of RL activity [1, 7] | inhibition of HCV-RNA replication [2] | inhibition of HCV-RNA replication [3] | inhibition of HCV-RNA replication [4] | VE 10μM(+) / VE 10μM(-) ratio of RL activity ([1]; reagent at expected EC90, Fig. 5B (control 3.0)) | VE 10μM(+) / VE 10μM(-) ratio of RL activity ([1]; reagent at expected EC90, Fig. 5D (control 2.3)) | time after treatment at which a decrease of RL activity began to be seen [5] [h] | EC80 [6] [IU/ml]
1 | C[C@@H]1CC[C@H]2[C@@H](C)C(=O)O[C@@H]3O[C@@]4(C)CC[C@@H]1[C@]32OO4 [Artemisinin, reference compound] | weak anti-HCV activity | 1.9 | – | – | – | – | – | – | –
2 | NC(=O)c1ncn([C@@H]2O[C@H](CO)[C@@H](O)[C@H]2O)n1 [RBV, ribavirin] | – | – | efficiently inhibited HCV-RNA replication | efficiently inhibited HCV-RNA replication | not in the OR6 assay | – | – | – | –
3 | IFN-α | – | 3.5 | – | – | – | 3.2 | 4.3 | 12 | ~1
